Laboratory results: patent US20100166727A1, “S-Adenosylmethionine And Methylthioadensosine In Chemoprevention And Treatment Of Colon Polyps And Cancer” (UNIVERSITY OF SOUTHERN CALIFORNIA, priority 2007, published 2010)
Entries after “also recorded” stand apart in the source; their conditions may differ.

Assays:
[1] = test system: MAT2A; assay: MAT2A mRNA levels by real-time PCR in HT-29 cells; type: cell-based, human; conditions: for MAT2A expression: 6 hr treatment, HT-29 cells
Experimental: HT-29 and RKO cells were obtained from the Cell Culture Core of the USC Liver Disease Research Center and grown according to instructions provided by the American Type Culture Collection (ATCC, Rockville, Md.). Prior to treatment with growth factors, SAMe or MTA, medium was changed to 0.1% FBS overnight.
RNA interference (RNAi) experiments were performed using Lipofectamine RNAiMax (Invitrogen) according to the manufacturer's instructions. Small interfering RNA (siRNA) oligonucleotides for MAT2A and scrambled siRNA were synthesized by the USC Norris Comprehensive Cancer Center Microchemical Core Laboratory, and annealed to form duplexes. Stealth RNAi for MAT2A and Stealth RNAi negative control duplexes were synthesized by Invitrogen (Carlsbad, Calif.). The following siRNA sequences were used: si-MAT2A #1, 5′-[…]-3′ (sense) and 5′-[…]-3′ (antisense); si-control with scrambled sequence (negative control siRNA having no perfect matches to known human genes), 5′-[…]dTdT-3′ (sense) and 5% […]dTdT-3′ (antisense); stealth RNAi-MAT2A #5, 5′-[…]-3′ (sense) and 5′-[…]-3′ (antisense). […]
Total RNA was isolated by the EZgeno total RNA isolation kit (Genemega, San Giego, Calif.), and subjected to reverse transcription (RT) by using M-MLV Reverse transcriptase (Invitrogen). 2 μl of RT product was subjected to quantitative real-time PCR analysis. The primers and TaqMan probes for MAT2A, MAT2β and Universal PCR Master Mix were purchased from ABI (Foster City, Calif.). Hypoxanthine phosphoribosyl-transferase 1 (HPRT1) and ubiquitin C (UBC) were used as housekeeping genes (48). The thermal profile consisted of 1 cycle at 95° C. for 15 minutes followed by 40 cycles at 95° C. for 15 seconds and at 60° C. for 1 minute. The expression of MAT2A and MAT2β was checked by normalizing the Ct of MAT2A and MAT2β to that of the control housekeeping gene (HPRT1 or UBC) (49). The delta Ct obtained was used to find the relative expression of MAT genes according to the formula: Relative expression=2·^ΔCt, where ΔCt=ΔCt of MAT genes in colon cancer or treated cells—ΔCt of MAT genes in normal colon or control cells.

[2] = target: MAT III (Rattus norvegicus, UniProt P13444); conditions: cited from earlier work
Sequence of MAT III (P13444 whole entry): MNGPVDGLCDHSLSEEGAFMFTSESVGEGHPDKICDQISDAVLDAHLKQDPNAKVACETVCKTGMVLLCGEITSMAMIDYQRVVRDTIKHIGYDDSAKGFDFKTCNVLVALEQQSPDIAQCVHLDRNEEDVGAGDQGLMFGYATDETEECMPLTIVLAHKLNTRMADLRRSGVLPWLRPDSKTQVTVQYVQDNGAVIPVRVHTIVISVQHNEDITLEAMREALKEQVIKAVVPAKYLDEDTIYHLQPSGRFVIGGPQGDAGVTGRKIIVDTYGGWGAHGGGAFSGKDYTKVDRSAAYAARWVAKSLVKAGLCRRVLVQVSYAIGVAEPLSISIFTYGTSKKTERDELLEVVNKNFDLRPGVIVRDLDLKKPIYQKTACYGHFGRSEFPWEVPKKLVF

[3] = Tolerability of oral SAMe and MTA in mice; type: in vivo; conditions: oral in drinking water, 6 days; weight gain and water consumption similar to controls
From the text: SAMe and MTA were made fresh daily. The amount of water intake, body weight, and animal behavior were closely monitored. After 6 days, animals were sacrificed, intestine was cut open along the longitudinal axis, and mucosa was stripped from the intestine (46). Mucosa was weighed and a portion processed for SAMe measurement as described below, the rest snap frozen for subsequent RNA extraction.

[4] = Intestinal SAMe levels in mice given SAMe or MTA in drinking water; conditions: mouse, in vivo
Experimental: Three-month old male C57/B6 mice were fed ad libitum a standard diet (Harland Tekiad irradiated mouse diet 7912, Madison, Wis.), caged individually and had free access to water supplemented with SAMe ([…]), MTA (75 mg/kg/d), phosphate buffered saline (vehicle for SAMe) or DMSO (0.2%, vehicle for MTA) for 6 days. SAMe and MTA were made fresh daily. The amount of water intake, body weight, and animal behavior were closely monitored. After 6 days, animals were sacrificed, intestine was cut open along the longitudinal axis, and mucosa was stripped from the intestine (46). Mucosa was weighed and a portion processed for SAMe measurement as described below, the rest snap frozen for subsequent RNA extraction.
Cellular SAMe and MTA levels were measured (51) and polyamine levels were determined (52).

[5] = target: MAT I (Rattus norvegicus, UniProt P13444); conditions: cited from earlier work
Sequence of MAT I (P13444 whole entry): as above

[6] = test system: Bcl-xS; assay: Bcl-xS mRNA level in HT-29 cells; type: cell-based, human; conditions: 6 hrs
Experimental: SAMe and MTA induce apoptosis in liver cancer cells by the mitochondrial pathway (14). […] In liver cancer cells, SAMe and MTA induced selectively expression of Bcl-xs, a pro-apoptotic protein (67). We examined whether the same occurs in HT-29 cells. After 6 hrs of MTA (1 mM) treatment, Bcl-xL mRNA level fell by 53% (47±4% of control, results are mean±SE from 4 experiments, p<0.0005). […] This makes these agents particularly attractive in targeting colon cancer cells.

## C[S+](CC[C@H](N)C(=O)O)C[C@H]1O[C@@H](n2cnc3c(N)ncnc32)[C@H](O)[C@@H]1O (stereo partly drawn) [SAMe, S-adenosylmethionine]
[1]; 0.5 mM SAMe
  MAT2A expression: 81 % baseline
[1]; 1 mM SAMe
  MAT2A expression: 65 % baseline
[1]; 2 mM SAMe
  MAT2A expression: 55 % baseline
[1]; 5 mM SAMe
  MAT2A expression: 38 % of baseline
[1]; SAMe 5 mM or MTA 1 mM, 6 hrs, HT29 cells
  reduction of baseline expression of MAT2A: 60%
[1]; co-treatment 3 hrs
  IGF-1-mediated induction of MAT2A on co-treatment: blunted the IGF-1-mediated induction of MAT2A
[1]; co-treatment with leptin (6 hrs) or EGF (3 hrs)
  leptin- or EGF-induced MAT2A expression on co-treatment: prevented the ability of these growth factors to induce MAT2A
[2]; MAT III
  Inhibition by SAMe: No
[2]; at 500 μM SAMe
  stimulation of MAT III: up to 8 fold
[3]
  tolerability / toxicity: well tolerated; also recorded: no apparent toxicity
[4]
  SAMe level in proximal small intestine: 800 % of control
  increase in SAMe level in colonic mucosa: ~200%
[5]; MAT I
  Inhibition by SAMe: No
[5]; read-out: IC50, inhibition of MAT I
  IC50: 400 µM
[6]
  Bcl-xS mRNA level: no effect on Bcl-xS mRNA level
